Experimental findings from patent publication US20060167056A1, “Polymorphs of {5-[3-(4,6-Difluoro-1H-benzoimidazol-2-yl)-1H-indazol-5-yl)-4-methyl-pyridin-3-ylmethyl}-ethyl-amine” (AGOURON PHARMACEUTICALS, INC., priority 2004, published 2006) are described below.

Each structure is given as a SMILES string. Entries after “also recorded” stand apart in the source; their conditions may differ.

Type in all cases: physicochemical
A short description of data set [1]: DSC profiling, meta-stability of the polymorphic form. Particulars: DSC thermogram. An excerpt: Different polymorphic forms of Compound 1 were also distinguished using differential scanning calorimetry (DSC). DSC measures the difference in heat energy between a solid sample and an appropriate reference with an increase in temperature. DSC thermograms are characterized by endotherms (indicating energy uptake) and also by exotherms (indicating energy release), typically as the sample is heated. The DSC thermographs were obtained using a TA Instrument DSC Q-1000 instrument at a scan rate of 10° C./min over a temperature range of 25-300° C. Samples were weighed into aluminum crucibles that were sealed and punctured with a single hole. The extrapolated onset of melting temperature and, where applicable, the onset of dehydration/desolvation temperature, were also calculated. […] For any given example, the observed endotherms may also differ from instrument to instrument; however, it will generally be within the ranges defined herein provided the instruments are calibrated similarly.
(§1) Polymorph Form A is a meta-stable solvate form of Compound 1. Form A is chemically stable at 40° C. at 75% relative humidty for at least 6 weeks. […] The 6 week DSC thermogram, FIG. 2G, indicates an endotherm onset at 257° C. at a scan rate of 10° C./min.
FIG. 3A is an X-ray powder diffractogram of polymorph Form C of Compound 1. […]
In general terms: In DSC, transitions show as peaks or steps in heat flow.

Data set [2] in a line: Stability study at 40° C. at 75% relative humidity (X-ray powder diffraction and DSC, initial vs 6 weeks).
Description: (§2) The present invention provides several polymorphic crystalline forms of Compound 1. Each crystalline form of the compound can be characterized by one or more of the following: X-ray powder diffraction pattern (i.e., X-ray diffraction peaks at various diffraction angles (2θ)), melting point onset (and onset of dehydration for hydrated forms) as illustrated by endotherms of a differential scanning calorimetry (DSC) thermogram, Raman spectra, thermal gravimetric analysis (TGA), solid state ^13C and ^19F nuclear magnetic resonance (SSNMR) spectrum, aqueous solubility, light stability under International Conference on Harmonization (ICH) high intensity light conditions, and physical and chemical storage stability.
as §1
(§3) Polymorph Form B is physically and chemically stable at 40° C. at 75% relative humidity for at least six weeks.
FIG. 2A is an X-ray powder diffractogram of polymorph Form B of Compound 1. Form B was further characterized by Raman spectra, ^13C solid state NMR, ^19F solid state NMR, DSC profiling and TGA analysis.

A short description of the next data set: Aqueous solubility.
Description: as §2, §3

Consider `CCNCc1cncc(-c2ccc3[nH]nc(-c4nc5c(F)cc(F)cc5[nH]4)c3c2)c1C` [Form A, {5-[3-(4,6-Difluoro-1H-benzoimidazol-2-yl)-1H-indazol-5-yl]-4-methyl-pyridin-3-ylmethyl}-ethyl-amine], for which the “stability class of the polymorphic form” value in data set [1] is “meta-stable”. Also, the “chemically stable, duration” value in data set [2] was “at least 6 weeks”. The “polymorph conversion, initial DSC thermogram vs 6 week DSC thermogram” value in data set [2] (6 weeks, DSC scan rate 10° C./min) is “small conversion of Form A to Form B; also recorded: a small amount of Form A had been converted to Form B”. Moreover, the “physical stability, initial X-Ray powder diffraction data vs 6 week stability X-ray data” value in data set [2] (6 weeks, XRPD) is reported as “appears to be physically stable”.

For the compound `CCNCc1cncc(-c2ccc3[nH]nc(-c4nc5c(F)cc(F)cc5[nH]4)c3c2)c1C` [Form C, {5-[3-(4,6-Difluoro-1H-benzoimidazol-2-yl)-1H-indazol-5-yl]-4-methyl-pyridin-3-ylmethyl}-ethyl-amine], the “stability class of the polymorphic form” value in data set [1] was “meta-stable”.

For the compound `CCNCc1cncc(-c2ccc3[nH]nc(-c4nc5c(F)cc(F)cc5[nH]4)c3c2)c1C` [Form B, {5-[3-(4,6-Difluoro-1H-benzoimidazol-2-yl)-1H-indazol-5-yl]-4-methyl-pyridin-3-ylmethyl}-ethyl-amine], the “chemically stable, duration” value in data set [2] was “at least six”. Further, the solubility (commonly how much of the substance goes into solution per volume) in “Aqueous solubility” (aqueous, aqueous buffer, pH=4, read-out: initial aqueous solubility) was above 20 mg/mL. The “behaviour of the aqueous solution after time” value in the data set “Aqueous solubility” (pH=4, after time) is “the solution has been seen to gel”.
